PMC5218480 (PLoS ONE, 2017)

Tested on: MV-4-11 cells
Assay: Gene expression microarray analysis (Affymetrix PrimeView) and GSEA
Type: cell-based, human
Parameters: RFU PODN (11730768_x_at) / Fold change /veh PODN (11730768_x_at) / RFU LINC00158 (11744669_a_at) / Fold change /veh LINC00158 (11744669_a_at) / RFU DUSP10 (11751237_a_at) / Fold change /veh DUSP10 (11751237_a_at) / RFU ID3 (11757404_x_at) / Fold change /veh ID3 (11757404_x_at) / RFU PLEKHG5 (11737974_s_at) / Fold change /veh PLEKHG5 (11737974_s_at) / RFU LRRC4B (11730491_at) / Fold change /veh LRRC4B (11730491_at) / RFU GIMAP4 (11747438_a_at) / Fold change /veh GIMAP4 (11747438_a_at) / RFU KRT8 (11758183_x_at) / Fold change /veh KRT8 (11758183_x_at) / RFU CNN1 (11734310_a_at) / Fold change /veh CNN1 (11734310_a_at) / RFU VPS37D (11726825_at) / Fold change /veh VPS37D (11726825_at) / RFU C10orf10 (11716522_x_at) / Fold change /veh C10orf10 (11716522_x_at) / RFU KIR2DL2 /// KIR2DL4 /// KIR2DL5A /// KIR2DL5B /// KIR2DS1 /// KIR2DS2 /// KIR2DS3 /// KIR2DS4 /// KIR3DL3 /// KIR3DL3 /// KIR3DS1 (11738374_at) / Fold change /veh KIR2DL2 /// KIR2DL4 /// KIR2DL5A /// KIR2DL5B /// KIR2DS1 /// KIR2DS2 /// KIR2DS3 /// KIR2DS4 /// KIR3DL3 /// KIR3DL3 /// KIR3DS1 (11738374_at) / RFU C1QL1 (11718748_at) / Fold change /veh C1QL1 (11718748_at) / RFU TMPRSS4 (11747572_a_at) / Fold change /veh TMPRSS4 (11747572_a_at) / RFU HAMP (11756126_x_at) / Fold change /veh HAMP (11756126_x_at) / RFU RNFT2 (11725882_a_at) / Fold change /veh RNFT2 (11725882_a_at) / RFU NR4A2 (11747474_a_at) / Fold change /veh NR4A2 (11747474_a_at) / RFU ABCC12 (11746883_a_at) / Fold change /veh ABCC12 (11746883_a_at) / RFU TMEM136 (11760407_x_at) / Fold change /veh TMEM136 (11760407_x_at) / RFU CLDN22 /// WWC2 (11732394_at) / Fold change /veh CLDN22 /// WWC2 (11732394_at) / RFU HLA-DPB1 (11760878_x_at) / Fold change /veh HLA-DPB1 (11760878_x_at) / RFU SPINT1 (11716480_a_at) / Fold change /veh SPINT1 (11716480_a_at) / RFU GAP43 (11754022_s_at) / Fold change /veh GAP43 (11754022_s_at) / RFU A4GNT (11735810_at) / Fold change /veh A4GNT (11735810_at) / RFU PRB3 (11715151_x_at) / Fold change /veh PRB3 (11715151_x_at) / RFU TUBB4B (11761932_at) / Fold change /veh TUBB4B (11761932_at) / RFU CAPN14 (11732068_a_at) / Fold change /veh CAPN14 (11732068_a_at) / RFU TMCC2 (11721928_a_at) / Fold change /veh TMCC2 (11721928_a_at) / RFU IRGQ (11745062_a_at) / Fold change /veh IRGQ (11745062_a_at) / RFU FAM174B (11720279_a_at) / Fold change /veh FAM174B (11720279_a_at) / RFU TMPRSS4 (11748680_a_at) / Fold change /veh TMPRSS4 (11748680_a_at) / RFU FAM212B (11763350_a_at) / Fold change /veh FAM212B (11763350_a_at) / RFU PLEKHG5 (11743358_a_at) / Fold change /veh PLEKHG5 (11743358_a_at) / RFU ZSCAN30 (11745921_a_at) / Fold change /veh ZSCAN30 (11745921_a_at) / RFU CMKLR1 (11741424_a_at) / Fold change /veh CMKLR1 (11741424_a_at) / RFU LOC101060620 /// MAPK8IP1 (11723275_at) / Fold change /veh LOC101060620 /// MAPK8IP1 (11723275_at) / RFU SPTSSB (11747773_x_at) / Fold change /veh SPTSSB (11747773_x_at) / RFU PRSS12 (11739890_at) / Fold change /veh PRSS12 (11739890_at) / RFU BIN1 (11741810_x_at) / Fold change /veh BIN1 (11741810_x_at) / RFU WNT11 (11732464_a_at) / Fold change /veh WNT11 (11732464_a_at) / RFU C10orf10 (11716521_a_at) / Fold change /veh C10orf10 (11716521_a_at) / RFU C5orf56 (11738089_at) / Fold change /veh C5orf56 (11738089_at) / RFU CYB561 (11721691_x_at) / Fold change /veh CYB561 (11721691_x_at) / RFU ANKRD19P (11752326_a_at) / Fold change /veh ANKRD19P (11752326_a_at) / RFU OR2T12 /// OR2T33 /// OR2T8 (11738714_s_at) / Fold change /veh OR2T12 /// OR2T33 /// OR2T8 (11738714_s_at) / RFU VCAN (11748164_a_at) / Fold change /veh VCAN (11748164_a_at) / RFU JSRP1 (11732532_at) / Fold change /veh JSRP1 (11732532_at) / RFU KRTAP10-11 (11738290_x_at) / Fold change /veh KRTAP10-11 (11738290_x_at) / RFU MYO3A (11730013_a_at) / Fold change /veh MYO3A (11730013_a_at) / RFU EBF3 (11725865_a_at) / Fold change /veh EBF3 (11725865_a_at) / RFU CAMK2N1 (11719241_x_at) / Fold change /veh CAMK2N1 (11719241_x_at) / RFU C5orf56 (11738088_a_at) / Fold change /veh C5orf56 (11738088_a_at) / RFU OLFML3 (11715873_a_at) / Fold change /veh OLFML3 (11715873_a_at) / RFU LOC100653217 /// NTM (11731650_a_at) / Fold change /veh LOC100653217 /// NTM (11731650_a_at) / RFU MAPK11 (11762145_a_at) / Fold change /veh MAPK11 (11762145_a_at) / RFU FIZ1 (11724087_x_at) / Fold change /veh FIZ1 (11724087_x_at) / RFU OASL (11726364_x_at) / Fold change /veh OASL (11726364_x_at) / RFU SOX15 (11748057_x_at) / Fold change /veh SOX15 (11748057_x_at) / RFU CD79A (11719716_a_at) / Fold change /veh CD79A (11719716_a_at) / RFU HIST1H1D (11736915_at) / Fold change /veh HIST1H1D (11736915_at) / RFU CASKIN2 (11723855_a_at) / Fold change /veh CASKIN2 (11723855_a_at) / RFU LOC730098 (11760151_x_at) / Fold change /veh LOC730098 (11760151_x_at) / RFU OR4N2 (11742367_at) / Fold change /veh OR4N2 (11742367_at) / RFU PRRT2 (11749266_a_at) / Fold change /veh PRRT2 (11749266_a_at) / RFU SNX32 (11753110_a_at) / Fold change /veh SNX32 (11753110_a_at) / RFU CDHR5 (11726645_a_at) / Fold change /veh CDHR5 (11726645_a_at) / RFU RCAN1 (11760418_a_at) / Fold change /veh RCAN1 (11760418_a_at) / RFU FAM167A (11723789_a_at) / Fold change /veh FAM167A (11723789_a_at) / RFU FAM26E (11764081_at) / Fold change /veh FAM26E (11764081_at) / RFU ISYNA1 (11749810_s_at) / Fold change /veh ISYNA1 (11749810_s_at) / RFU ACY1 (11761880_at) / Fold change /veh ACY1 (11761880_at) / RFU 11764098_at / Fold change /veh 11764098_at / RFU SAMD14 (11745864_x_at) / Fold change /veh SAMD14 (11745864_x_at) / RFU NPB (11741838_a_at) / Fold change /veh NPB (11741838_a_at) / RFU TMPRSS6 (11731388_a_at) / Fold change /veh TMPRSS6 (11731388_a_at) / RFU KRTAP10-2 (11738614_at) / Fold change /veh KRTAP10-2 (11738614_at) / RFU ARHGAP8 /// PRR5-ARHGAP8 (11727945_x_at) / Fold change /veh ARHGAP8 /// PRR5-ARHGAP8 (11727945_x_at) / RFU KRTAP5-7 /// NADSYN1 (11734609_at) / Fold change /veh KRTAP5-7 /// NADSYN1 (11734609_at) / RFU RASL12 (11751679_a_at) / Fold change /veh RASL12 (11751679_a_at) / RFU CDKN2B (11736163_a_at) / Fold change /veh CDKN2B (11736163_a_at) / RFU PRF1 (11729649_at) / Fold change /veh PRF1 (11729649_at) / RFU, ZNF638 /// ZNF638-IT1 / Fold change vs veh, ZNF638 /// ZNF638-IT1 / RFU, PANK3 / Fold change vs veh, PANK3 / RFU, SH3YL1 / Fold change vs veh, SH3YL1 / RFU, ZEB2 / Fold change vs veh, ZEB2 / RFU, NRIP1 / Fold change vs veh, NRIP1 / RFU, PTTG1IP / Fold change vs veh, PTTG1IP / RFU, CAPN2 / Fold change vs veh, CAPN2 / RFU, MED14 / Fold change vs veh, MED14 / RFU, SNORA58 / Fold change vs veh, SNORA58 / RFU, C1orf63 / Fold change vs veh, C1orf63 / RFU, LRRFIP1 / Fold change vs veh, LRRFIP1 / RFU, NDUFAF7 / Fold change vs veh, NDUFAF7 / RFU, SLC12A2 / Fold change vs veh, SLC12A2 / RFU, IBTK / Fold change vs veh, IBTK / RFU, ESF1 / Fold change vs veh, ESF1 / Fold change vs veh, TMEM50B / RFU, TAOK1 / Fold change vs veh, TAOK1 / RFU, ACBD3 / Fold change vs veh, ACBD3 / RFU, TMA16 / Fold change vs veh, TMA16 / RFU, RWDD3 / Fold change vs veh, RWDD3 / RFU, BCAT1 / Fold change vs veh, BCAT1 / RFU, EDEM3 / Fold change vs veh, EDEM3 / RFU, TMEM33 / Fold change vs veh, TMEM33 / RFU, WDR75 / Fold change vs veh, WDR75 / RFU, AHCTF1 / Fold change vs veh, AHCTF1 / RFU, TFRC / Fold change vs veh, TFRC / RFU, ZDHHC17 / Fold change vs veh, ZDHHC17 / RFU, NOM1 / Fold change vs veh, NOM1 / RFU, ARL8B / Fold change vs veh, ARL8B / RFU, ZBTB11 / Fold change vs veh, ZBTB11 / RFU, TAMM41 / Fold change vs veh, TAMM41 / RFU, KIAA1704 /// LOC100996395 / Fold change vs veh, KIAA1704 /// LOC100996395 / RFU, ING1 / Fold change vs veh, ING1 / RFU, TRMT61B / Fold change vs veh, TRMT61B / RFU, FUBP3 / Fold change vs veh, FUBP3 / RFU, TP53 / Fold change vs veh, TP53 / RFU, TNKS2 / Fold change vs veh, TNKS2 / RFU, ZFP14 / Fold change vs veh, ZFP14 / RFU, ACTR2 / Fold change vs veh, ACTR2 / RFU, PPP3R1 / Fold change vs veh, PPP3R1 / RFU, PIK3R1 / Fold change vs veh, PIK3R1 / RFU, HNRNPA1 / Fold change vs veh, HNRNPA1 / RFU, RNF170 / Fold change vs veh, RNF170 / RFU, ZNF28 / Fold change vs veh, ZNF28 / RFU, RNGTT / Fold change vs veh, RNGTT / RFU, OGT / Fold change vs veh, OGT / RFU, BRD1 / Fold change vs veh, BRD1 / RFU, MARS / Fold change vs veh, MARS / RFU, ZNF655 / Fold change vs veh, ZNF655 / RFU, FAHD1 / Fold change vs veh, FAHD1 / RFU, BDP1 / Fold change vs veh, BDP1 / RFU, LRRCC1 / Fold change vs veh, LRRCC1 / RFU, ARID1A / Fold change vs veh, ARID1A / RFU, ZNF146 / Fold change vs veh, ZNF146 / RFU, ZNF330 / Fold change vs veh, ZNF330 / RFU, GPN3 / Fold change vs veh, GPN3 / RFU, C9orf123 / Fold change vs veh, C9orf123 / RFU, N4BP2L2 / Fold change vs veh, N4BP2L2 / RFU, ARFIP1 / Fold change vs veh, ARFIP1 / RFU, FAM179B / Fold change vs veh, FAM179B / RFU, BCL10 / Fold change vs veh, BCL10 / RFU, UHRF1BP1L / Fold change vs veh, UHRF1BP1L / RFU, BET1 / Fold change vs veh, BET1 / RFU, CNOT2 / Fold change vs veh, CNOT2 / RFU, ZNF268 / Fold change vs veh, ZNF268 / Fold change vs veh, ZNF507 / RFU, DGCR2 / Fold change vs veh, DGCR2 / RFU, WDSUB1 / Fold change vs veh, WDSUB1 / Fold change vs veh, HSP90B1 /// MIR3652 / RFU, ADSS / Fold change vs veh, ADSS / RFU, GK / Fold change vs veh, GK / RFU, ZNF148 / Fold change vs veh, ZNF148 / RFU, TAF9 / Fold change vs veh, TAF9 / RFU, SLC1A5 / Fold change vs veh, SLC1A5 / RFU, SLMO2 / Fold change vs veh, SLMO2 / RFU, ABCC4 / Fold change vs veh, ABCC4 / RFU, LOC101060439 /// RAP1B / Fold change vs veh, LOC101060439 /// RAP1B / RFU, RFX7 / Fold change vs veh, RFX7 / RFU, GTPBP10 / Fold change vs veh, GTPBP10 / RFU, CNEP1R1 / Fold change vs veh, CNEP1R1 / RFU, BIVM-ERCC5 /// ERCC5 / Fold change vs veh, BIVM-ERCC5 /// ERCC5 / RFU, ILF3 / Fold change vs veh, ILF3 / RFU 11762660_at / Fold change /veh 11762660_at / RFU VCAN (11757783_s_at) / Fold change /veh VCAN (11757783_s_at) / RFU DDX43 (11728927_at) / Fold change /veh DDX43 (11728927_at) / RFU KRT8 (11758188_x_at) / Fold change /veh KRT8 (11758188_x_at) / RFU NKD1 (11759106_at) / Fold change /veh NKD1 (11759106_at) / RFU SRD5A1 (11742802_a_at) / Fold change /veh SRD5A1 (11742802_a_at) / RFU TPSAB1 /// TPSB2 (11721975_s_at) / Fold change /veh TPSAB1 /// TPSB2 (11721975_s_at) / RFU GSTM3 (11746129_a_at) / Fold change /veh GSTM3 (11746129_a_at) / RFU IL23R (11737362_x_at) / Fold change /veh IL23R (11737362_x_at) / RFU TMEM51 (11727254_a_at) / Fold change /veh TMEM51 (11727254_a_at) / RFU PIWIL2 (11732686_x_at) / Fold change /veh PIWIL2 (11732686_x_at) / RFU ORM1 (11744905_x_at) / Fold change /veh ORM1 (11744905_x_at) / RFU CCDC152 (11743942_at) / Fold change /veh CCDC152 (11743942_at) / RFU ECM1 (11717891_a_at) / Fold change /veh ECM1 (11717891_a_at) / RFU IL23R (11748794_a_at) / Fold change /veh IL23R (11748794_a_at) / RFU TNFAIP8L3 (11732012_x_at) / Fold change /veh TNFAIP8L3 (11732012_x_at) / RFU MBOAT4 (11741988_at) / Fold change /veh MBOAT4 (11741988_at) / RFU 11764193_at / Fold change /veh 11764193_at / RFU TMEM53 (11763286_at) / Fold change /veh TMEM53 (11763286_at) / RFU MAGEB2 (11727129_at) / Fold change /veh MAGEB2 (11727129_at) / RFU TMEM200A (11744735_a_at) / Fold change /veh TMEM200A (11744735_a_at) / RFU CCDC152 (11751479_a_at) / Fold change /veh CCDC152 (11751479_a_at) / RFU FAM211A (11726209_a_at) / Fold change /veh FAM211A (11726209_a_at) / RFU RGS16 (11746705_a_at) / Fold change /veh RGS16 (11746705_a_at) / RFU VCAN (11755009_s_at) / Fold change /veh VCAN (11755009_s_at) / RFU RHOB (11743442_s_at) / Fold change /veh RHOB (11743442_s_at) / RFU RGS16 (11720943_a_at) / Fold change /veh RGS16 (11720943_a_at) / RFU RGS16 (11720944_at) / Fold change /veh RGS16 (11720944_at) / RFU, VPS4B / Fold change vs veh, VPS4B / RFU, CREB1 / Fold change vs veh, CREB1 / RFU, DNAJC13 / Fold change vs veh, DNAJC13 / RFU, GNAQ / Fold change vs veh, GNAQ / RFU, CDK5R1 / Fold change vs veh, CDK5R1 / RFU, ZRANB3 / Fold change vs veh, ZRANB3 / RFU, CUL4A / Fold change vs veh, CUL4A / RFU, CCNY / Fold change vs veh, CCNY / RFU, UFL1 / Fold change vs veh, UFL1 / RFU, COG3 / Fold change vs veh, COG3 / RFU, DIAPH2 / Fold change vs veh, DIAPH2 / RFU, SKA2 / Fold change vs veh, SKA2 / RFU, AFF3 / Fold change vs veh, AFF3 / RFU, LMF1 / Fold change vs veh, LMF1 / RFU, IPO11 / Fold change vs veh, IPO11 / RFU, DFFB / Fold change vs veh, DFFB / RFU, FOXP1 / Fold change vs veh, FOXP1 / RFU, CARD8 / Fold change vs veh, CARD8 / RFU, STRN3 / Fold change vs veh, STRN3 / RFU, ADK / Fold change vs veh, ADK / RFU, RASSF2 / Fold change vs veh, RASSF2 / RFU, WIPF1 / Fold change vs veh, WIPF1 / RFU, LARP1B / Fold change vs veh, LARP1B / RFU, RASA1 / Fold change vs veh, RASA1 / RFU, RB1 / Fold change vs veh, RB1 / RFU, PPFIA1 / Fold change vs veh, PPFIA1 / RFU, MAT2A / Fold change vs veh, MAT2A / RFU, CCT5 / Fold change vs veh, CCT5 / RFU, WDR92 / Fold change vs veh, WDR92 / RFU, CUX1 / Fold change vs veh, CUX1 / RFU, TTC7A / Fold change vs veh, TTC7A / RFU, TMEM135 / Fold change vs veh, TMEM135 / RFU, DEPTOR / Fold change vs veh, DEPTOR / RFU, CPM / Fold change vs veh, CPM / RFU, DNAJB6 / Fold change vs veh, DNAJB6 / RFU, CACNA2D3 / Fold change vs veh, CACNA2D3 / RFU, DTX4 / Fold change vs veh, DTX4 / RFU, TFCP2 / Fold change vs veh, TFCP2 / RFU, GMCL1 /// GMCL1P1 / Fold change vs veh, GMCL1 /// GMCL1P1 / RFU, AEBP2 / Fold change vs veh, AEBP2 / RFU, SNHG1 /// SNORD22 /// SNORD25 /// SNORD26 /// SNORD27 /// SNORD28 /// SNORD29 /// SNORD31 / Fold change vs veh, SNHG1 /// SNORD22 /// SNORD25 /// SNORD26 /// SNORD27 /// SNORD28 /// SNORD29 /// SNORD31 / Fold change (Aza/veh), C12orf56 (ProbeSet 11735607_a_at) / Fold change (ACY-1035/veh), C12orf56 (ProbeSet 11735607_a_at) / Fold change (Aza/veh), FGFR1OP (ProbeSet 11751329_s_at) / Fold change (ACY-1035/veh), FGFR1OP (ProbeSet 11751329_s_at) / Fold change (Aza/veh), VPS36 (ProbeSet 11739960_a_at) / Fold change (ACY-1035/veh), VPS36 (ProbeSet 11739960_a_at) / RFU SYPL1 (11715823_x_at) / Fold change /veh SYPL1 (11715823_x_at) / RFU IGFBP7 (11715501_s_at) / Fold change /veh IGFBP7 (11715501_s_at) / RFU REEP3 (11722064_at) / Fold change /veh REEP3 (11722064_at) / RFU IGLL1 (11728026_x_at) / Fold change /veh IGLL1 (11728026_x_at): dose or concentration left out as unconfirmed
Settings: ProbeSet 11718569_a_at; LIST D

## Nc1ccc(-c2cccs2)cc1NC(=O)c1ccc2c(c1)cc(C1CC1)n2CCN1CCOCC1 [ACY-1035]
  Fold change vs veh, WIPF1: 0.95
